Here are results for one compound from paper PMC8092220, “Insights into the Relationship between Cobamide Synthase and the Cell Membrane” (mBio, 2021).

In general, pKd refers to −log10 of the Kd, conventionally taken in molar units. Low values mean a large Kd, high ones a small Kd.

pKd: −log10 of the molar value.

This test has as its target T1, cobamide (5′ phosphate) synthase (CobS) (Salmonella enterica, UniProt Q05602).
T1 construct: CobS^WT reconstituted in proteoliposomes
The test can be described thus: DRaCALA with […]α-RP, CobS proteoliposomes (Kd […] for DHPC-solubilized CobS); also protection in limited trypsin proteolysis. It is filed as binding.

T1 sequence (Q05602 whole entry): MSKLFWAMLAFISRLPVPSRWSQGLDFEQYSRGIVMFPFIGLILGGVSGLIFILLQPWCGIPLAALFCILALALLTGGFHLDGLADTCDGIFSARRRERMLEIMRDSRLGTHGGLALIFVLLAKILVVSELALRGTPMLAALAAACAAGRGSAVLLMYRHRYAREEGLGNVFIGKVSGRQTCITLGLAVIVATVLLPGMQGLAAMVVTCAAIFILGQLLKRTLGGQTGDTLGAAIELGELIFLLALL

`Cc1cc2ncn([C@H]3O[C@H](COP(=O)(O)O)[C@@H](O)[C@H]3O)c2cc1C` [α-RP, N1-(5-phospho-alpha-D-ribosyl)-5,6-dimethylbenzimidazole] gave a pKd of 6.24.
